Consider 1 substance from US20250136655A1, “INJECTION PEN FOR SUBCUTANEOUS ADMINISTRATION OF A PEPTIDE” (Zealand Pharma A/S, priority 2017, published 2025).

Where two headings read alike, the source gives them in different places.

The conditions of data set [1]: previous experiments; cited from earlier work.
Data set [2] can be described thus: Phase 2 clinical trial PK profile of ZP1848 and metabolites in SBS patients. The format is in vivo. As to conditions: human, plasma, subcutaneous, Phase 2 study, SBS patients; read-out: terminal plasma half-life. On the procedure: The study was designed as a randomized, cross-over and double-blinded with three different doses of ZP1848 (10 mg, 1 mg, 0.1 mg) in 16 SBS patients.
The 18 SBS patients (16 patients completed the study) were randomized evenly and in a double-blinded fashion to each of the six cross-over dose level combinations: 10 mg/1 mg, 10 mg/0.1 mg, 1 mg/10 mg, 1 mg/0.1 mg, 0.1 mg/10 mg, 0.1 mg/1 mg of ZP1848. The patients were injected once daily (QD) subcutaneously with the above doses of ZP1848.
Blood samples for PK analysis were collected on several study visits throughout the study period: the study comprised a 1st baseline balance study (4 days), a 1st treatment period (21 days) including a 1st treatment balance study (last 4 days of 1st treatment period), followed by a wash-out period (at least 4 weeks); and a 2nd baseline balance study (4 days), a 2nd treatment period (21 days) including a 2nd treatment balance study (last 4 days of 2nd treatment period) and a follow-up period (at least 4 weeks).
PK sampling was performed at visit 11 (1st treatment, balance study) and visit 17 (second day of 2nd baseline study-after a wash out period), and again at visit 25 (2nd treatment balance study) and at visit 29 (last day of follow-up period).
At day visit 11 and visit 25 a full PK profile in steady state was investigated. PK samples were taken prior to injection of ZP1848, and at the following time points (+/−10 minutes) after trial product administration: 1 h, 2 h, 4 h, 6 h, 8 h, 10 h, 12 h and 24 h. Each PK sample contained 2 mL of blood, resulting in a total of […] blood drawn for PK purposes. The plasma sample was immediately stored at −80° C. after sampling.
Plasma samples were analyzed after immunoaffinity extraction followed by liquid chromatography mass spectrometry (LC-MS/MS). […] Plasma terminal elimination half-life (T½) was determined as In (2)/ke where ke is the magnitude of the slope of the log linear regression of the log concentration versus time profile during the terminal phase.

One may read the half-life as how long it takes for the measured level to halve. In the case of “H-HGEGTFSSELATILDALAARDFIAWLIATKITDKKKKKK-NH2 [ZP1848]”, the half-life entry in data set [1] is “about 17 hours”; in data set [2], 5 to 17 days.
